Laboratory results from ChEMBL document CHEMBL1126234, “Rigid analogs of acetylcholine can be m1-selective agonists: implications for a rational treatment strategy in Alzheimer's disease” (Bioorg Med Chem Lett, 1992).
Changes are numbered by the printed parent chain.

What was measured:
Format in all cases: functional, cell-based
[1] = molecular target: T1, Muscarinic acetylcholine receptor M1 (Homo sapiens) (UniProt P11229); assay: Percent increase in phosphoinositides (PI) hydrolysis using chinese hamster ovary (CHO) cells, stably transfected with human muscarinic m1 acetylcholine receptor (AChR)
T1 sequence (whole entry): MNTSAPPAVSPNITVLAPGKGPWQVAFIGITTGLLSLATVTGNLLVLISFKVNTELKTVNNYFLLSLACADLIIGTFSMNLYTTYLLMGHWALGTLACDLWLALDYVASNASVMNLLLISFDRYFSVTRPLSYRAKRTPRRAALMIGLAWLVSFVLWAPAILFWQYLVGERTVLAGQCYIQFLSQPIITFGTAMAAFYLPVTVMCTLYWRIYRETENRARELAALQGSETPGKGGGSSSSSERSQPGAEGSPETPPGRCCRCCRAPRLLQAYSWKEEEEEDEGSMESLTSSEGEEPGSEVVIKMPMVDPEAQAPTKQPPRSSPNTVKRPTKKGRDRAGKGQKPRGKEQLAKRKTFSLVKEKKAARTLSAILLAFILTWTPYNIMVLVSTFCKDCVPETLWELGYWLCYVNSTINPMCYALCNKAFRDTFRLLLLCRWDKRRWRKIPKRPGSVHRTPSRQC

[2] = molecular target: T2, Muscarinic acetylcholine receptor M4 (Homo sapiens) (UniProt P08173); assay: Percent increase in intracellular calcium ion concentration ([Ca2+]i) using CHO cells, stably transfected with human muscarinic m4 acetylcholine receptor (AChR)
T2 sequence (whole entry): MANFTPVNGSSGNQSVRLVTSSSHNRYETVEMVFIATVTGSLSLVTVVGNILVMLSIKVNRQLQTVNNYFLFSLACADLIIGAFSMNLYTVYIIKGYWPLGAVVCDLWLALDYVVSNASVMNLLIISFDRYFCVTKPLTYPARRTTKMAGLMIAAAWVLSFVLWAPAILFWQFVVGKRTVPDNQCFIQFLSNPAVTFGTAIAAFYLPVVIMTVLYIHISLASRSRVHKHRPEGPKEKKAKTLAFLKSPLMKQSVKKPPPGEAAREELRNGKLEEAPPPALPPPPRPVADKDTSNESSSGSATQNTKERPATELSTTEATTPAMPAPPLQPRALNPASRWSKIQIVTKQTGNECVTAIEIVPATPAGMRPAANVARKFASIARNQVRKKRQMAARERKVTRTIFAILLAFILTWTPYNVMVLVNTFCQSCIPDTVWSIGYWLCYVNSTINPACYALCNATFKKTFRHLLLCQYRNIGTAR

[3] = molecular target: T3, Muscarinic acetylcholine receptor M2 (Homo sapiens) (UniProt P08172); assay: Percent increase in forskolin-stimulated cAMP accumulation using CHO cells, transfected with human muscarinic m2 acetylcholine receptor (AChR)
T3 sequence (whole entry): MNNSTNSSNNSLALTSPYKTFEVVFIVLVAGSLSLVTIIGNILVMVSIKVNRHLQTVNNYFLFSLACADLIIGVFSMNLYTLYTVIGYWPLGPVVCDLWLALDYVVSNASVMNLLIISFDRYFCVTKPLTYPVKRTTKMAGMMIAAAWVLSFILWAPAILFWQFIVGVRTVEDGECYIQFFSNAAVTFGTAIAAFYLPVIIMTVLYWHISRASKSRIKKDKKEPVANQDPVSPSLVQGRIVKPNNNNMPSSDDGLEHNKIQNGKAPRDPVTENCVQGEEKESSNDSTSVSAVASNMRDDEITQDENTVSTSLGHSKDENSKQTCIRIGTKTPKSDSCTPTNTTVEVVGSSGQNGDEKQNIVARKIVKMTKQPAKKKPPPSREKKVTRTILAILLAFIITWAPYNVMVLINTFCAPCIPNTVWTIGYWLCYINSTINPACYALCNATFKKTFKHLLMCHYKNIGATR

[4] = molecular target: Muscarinic acetylcholine receptor M3 (Rattus norvegicus) (UniProt P08483); assay: Percent increase in Arachidonic acid (AA) release using CHO cells, stably transfected with rat muscarinic m3 acetylcholine receptor (AChR)
Chain of Muscarinic acetylcholine receptor M3 (Rattus norvegicus) (P08483 whole entry, looked up): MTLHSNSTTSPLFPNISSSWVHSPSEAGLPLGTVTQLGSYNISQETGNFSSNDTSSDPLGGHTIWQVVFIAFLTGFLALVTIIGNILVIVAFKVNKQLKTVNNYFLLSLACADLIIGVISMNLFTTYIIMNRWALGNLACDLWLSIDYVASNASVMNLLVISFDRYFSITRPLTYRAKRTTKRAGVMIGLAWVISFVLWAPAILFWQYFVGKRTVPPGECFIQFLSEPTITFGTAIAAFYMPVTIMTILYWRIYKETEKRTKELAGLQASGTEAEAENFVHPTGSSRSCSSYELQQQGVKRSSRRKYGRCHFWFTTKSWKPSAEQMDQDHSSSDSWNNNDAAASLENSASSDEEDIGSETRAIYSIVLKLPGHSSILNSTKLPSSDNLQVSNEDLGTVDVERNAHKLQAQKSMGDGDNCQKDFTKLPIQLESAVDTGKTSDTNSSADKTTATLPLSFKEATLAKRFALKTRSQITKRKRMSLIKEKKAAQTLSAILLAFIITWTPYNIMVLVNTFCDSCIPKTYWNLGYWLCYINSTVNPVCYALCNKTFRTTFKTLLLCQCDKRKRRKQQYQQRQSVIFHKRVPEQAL

[5] = molecular target: T1, Muscarinic acetylcholine receptor M1 (Homo sapiens); assay: Percent increase in forskolin-stimulated cAMP accumulation using CHO cells, stably transfected with human muscarinic m1 acetylcholine receptor (AChR)
[6] = molecular target: Muscarinic acetylcholine receptor M3 (Homo sapiens) (UniProt P20309); assay: Percent increase in intracellular calcium ion concentration ([Ca2+]i) using CHO cells, stably transfected with human muscarinic m3 acetylcholine receptor (AChR)
Chain of Muscarinic acetylcholine receptor M3 (Homo sapiens) (P20309 whole entry, looked up): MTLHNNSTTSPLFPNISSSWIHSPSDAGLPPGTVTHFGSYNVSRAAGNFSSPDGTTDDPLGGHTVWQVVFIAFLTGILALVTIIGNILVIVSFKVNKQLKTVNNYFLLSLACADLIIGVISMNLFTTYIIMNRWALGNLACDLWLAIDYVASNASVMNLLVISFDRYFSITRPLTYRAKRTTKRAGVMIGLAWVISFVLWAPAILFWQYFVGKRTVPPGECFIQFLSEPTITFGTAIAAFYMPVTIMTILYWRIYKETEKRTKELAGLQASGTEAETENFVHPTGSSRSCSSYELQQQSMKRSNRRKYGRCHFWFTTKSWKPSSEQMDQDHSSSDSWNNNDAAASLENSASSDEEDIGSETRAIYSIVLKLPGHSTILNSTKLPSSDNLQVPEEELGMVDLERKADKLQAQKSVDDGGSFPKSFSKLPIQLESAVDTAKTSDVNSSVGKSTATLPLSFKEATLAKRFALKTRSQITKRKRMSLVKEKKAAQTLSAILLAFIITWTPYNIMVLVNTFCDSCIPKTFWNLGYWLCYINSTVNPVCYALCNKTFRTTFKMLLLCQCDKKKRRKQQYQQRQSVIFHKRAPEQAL

[7] = molecular target: T1, Muscarinic acetylcholine receptor M1 (Homo sapiens); assay: Percent increase in intracellular calcium ions concentration ([Ca2+]i) using CHO cells, stably transfected with human muscarinic m1 acetylcholine receptor (AChR)
[8] = molecular target: Muscarinic acetylcholine receptor M3 (Homo sapiens) (UniProt P20309); assay: Percent increase in forskolin-stimulated cAMP accumulation using CHO cells, stably transfected with human muscarinic m3 acetylcholine receptor (AChR)
[9] = molecular target: T4, Muscarinic acetylcholine receptor M5 (Homo sapiens) (UniProt P08912); assay: Percent increase in phosphoinositides (PI) hydrolysis using CHO cells, stably transfected with human muscarinic m5 acetylcholine receptor (AChR)
T4 sequence (whole entry): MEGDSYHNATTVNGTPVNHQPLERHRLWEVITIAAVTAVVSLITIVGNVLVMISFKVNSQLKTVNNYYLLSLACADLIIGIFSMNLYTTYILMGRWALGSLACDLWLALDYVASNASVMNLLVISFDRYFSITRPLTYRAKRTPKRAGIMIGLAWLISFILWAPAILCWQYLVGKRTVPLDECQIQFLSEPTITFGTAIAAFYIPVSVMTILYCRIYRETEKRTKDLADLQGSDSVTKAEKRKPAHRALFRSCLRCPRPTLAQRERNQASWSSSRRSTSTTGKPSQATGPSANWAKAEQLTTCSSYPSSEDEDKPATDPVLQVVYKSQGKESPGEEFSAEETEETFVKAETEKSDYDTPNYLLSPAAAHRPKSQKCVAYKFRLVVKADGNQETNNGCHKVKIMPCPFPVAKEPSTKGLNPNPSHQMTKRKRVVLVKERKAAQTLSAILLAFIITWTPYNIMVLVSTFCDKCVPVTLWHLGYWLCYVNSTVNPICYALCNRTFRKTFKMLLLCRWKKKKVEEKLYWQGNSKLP

[10] = molecular target: Muscarinic acetylcholine receptor M3 (Homo sapiens) (UniProt P20309); assay: Percent increase in phosphoinositides (PI) hydrolysis using CHO cells, stably transfected with human muscarinic m3 acetylcholine receptor (AChR)
[11] = molecular target: T3, Muscarinic acetylcholine receptor M2 (Homo sapiens); assay: Percent increase in intracellular calcium ions concentration ([Ca2+]i) using CHO cells, stably transfected with human muscarinic m2 acetylcholine receptor (AChR)
[12] = molecular target: T5, Muscarinic acetylcholine receptor M1 (Rattus norvegicus) (UniProt P08482); assay: Percent increase in Arachidonic acid (AA) release using CHO cells, transfected with rat muscarinic m1 acetylcholine receptor (AChR)
T5 sequence (whole entry): T1 sequence (whole entry) with A5V, T254S, P309S, R320K, A337G, I413V

[13] = molecular target: T4, Muscarinic acetylcholine receptor M5 (Homo sapiens); assay: Percent increase in intracellular calcium ions concentration ([Ca2+]i) using CHO cells, stably transfected with human muscarinic m5 acetylcholine receptor (AChR)
[14] = molecular target: T1, Muscarinic acetylcholine receptor M1 (Homo sapiens); assay: Percent increase in Arachidonic acid (AA) release using CHO cells, transfected with human muscarinic m1 acetylcholine receptor (AChR)
[15] = molecular target: T4, Muscarinic acetylcholine receptor M5 (Homo sapiens); assay: Percent increase in Arachidonic acid (AA) release using CHO cells, stably transfected with human muscarinic m5 acetylcholine receptor (AChR)
[16] = molecular target: Muscarinic acetylcholine receptor M3 (Homo sapiens) (UniProt P20309); assay: Percent increase in Arachidonic acid (AA) release using CHO cells, stably transfected with human muscarinic m3 acetylcholine receptor (AChR)

CC1=NCC2(CCN(C)CC2)O1
Increase [1]: 85% | Increase [2]: 10% | Increase [3]: 74% | Increase [4]: 27% | Increase [5]: 6% | Increase [6]: 130% | Increase [7]: 60% | Increase [8]: 10% | Increase [9]: 28% | Increase [10]: 76% | Increase [11]: 12% | Increase [12]: 90% | Increase [13]: 78%

C[C@@H]1OC2(CS1)CN1CCC2CC1 (some centres undefined)
Increase [14]: 68% | Increase [1]: 43% | Increase [2]: 3% | Increase [15]: 4% | Increase [3]: 60% | Increase [5]: 1% | Increase [6]: 86% | Increase [7]: 79% | Increase [8]: 0.8% | Increase [9]: 4% | Increase [10]: 10% | Increase [16]: 11% | Increase [11]: 17% | Increase [13]: 32%

CC1=NC2(CCN(C)CC2)CO1
Increase [14]: 3% | Increase [1]: 102% | Increase [2]: 10% | Increase [3]: 70% | Increase [4]: 36% | Increase [6]: 132% | Increase [7]: 85% | Increase [8]: 4% | Increase [9]: 79% | Increase [10]: 84% | Increase [11]: 9% | Increase [12]: 61% | Increase [13]: 80%

C[N+](C)(C)CC#CCOC(=O)Nc1cccc(Cl)c1
Increase [14]: 90% | Increase [1]: 89% | Increase [15]: 34% | Increase [3]: 9.5% | Increase [5]: 7% | Increase [8]: 7% | Increase [9]: 24% | Increase [10]: 7% | Increase [16]: 13%
